Laboratory results: patent US9632092B2, “Reagent for diagnosing tumor, pharmaceutical composition, and screening method” (Tokyo Metropolitan Institute of Medical Science, priority 2012, dated 2017)
Where no end group is shown, it is not given here. [ ]: non-standard residue; d: D form. pS = N[C@@H](COP(=O)(O)O)C(=O)O

Experiments:
Huh-1_p62^−/− cells = test: subdermal transplantation of Huh-1_p62−/− cells with introduced p62 mutants into nude mice; type: in vivo; conditions: 50 days after transplantation, introduced into Huh-1_p62−/−
Description: First, p62 cDNAs which encode S349E (SEQ ID No. 8) (pseudo-phosphorylated p62) with the substitution of glutamic acid for serine 349 of human p62 (SEQ ID No. 7), S349A (SEQ ID No. 9) (non-phosphorylated p62) with the substitution of alanine for serine 349 of human p62, or T350A (SEQ ID No. 10) (p62 mutant defective in interacting with Keap1) with the substitution of alanine for threonine 350 of human p62 was prepared.
Next, a [Huh-1_p62^−/−] cell line was generated by knocking out the p62 gene in Huh-1 cells, using Zinc Finger Nuclease system (Sigma-Aldrich, CompoZr (registered trademark) Zinc Finger Nuclease). Then, adenoviruses having p62 w.t. or p62 mutant were produced, using Adenovirus expression kit (Takara Bio). The [Huh-1_p62^−/−] cells were cultured in 2 ml of a growth medium (Williams E medium containing 10% fetal bovine serum, 5 U/ml penicillin, and 50 μg/ml streptomycin) for 24 hours. The medium was replaced with a fresh medium containing adenovirus at MOI of 50 and the cells were continuously cultured. Wild-type human p62 (SEQ ID No. 7), S349E (SEQ ID No. 8), S349A (SEQ ID No. 9), and T350A (SEQ ID No. 10) were introduced into the [Huh-1_p62^−/−] cell line and thus a [Huh-1_p62^−/−_p62 w.t.] cell line with p62 w.t., a [Huh-1_p62^−/−_p62S349E] cell line with p62S349E, a [Huh-1_p62^−/−_p62S349A] cell line with p62S349A, and a [Huh-1_p62^−/−_p62T350A] cell line with p62T350A, respectively, in [Huh-1_p62^−/−] cell line was obtained.
Each of the cells was transplanted subdermally into […] nude mice. […] Each cell line was transplanted into five mice and the volume (left) and the weight (right) of the tumors were measured 50 days after the transplantation. Mean±standard error for each cell line was calculated and shown in the graphs in FIG. 7(b).

[1] = target: mouse Keap1-DC (aa321-609, SEQ ID No. 24) (Mus musculus, UniProt Q9Z2X8); test: isothermal titration calorimetry, binding to Keap1-DC; conditions: for Binding constant (Ka) to Keap1-DC: isothermal titration calorimetry, 25° C.; for binding affinity for Keap1-DC relative to KIR of the non-phosphorylated p62: fold higher binding constant
Description: Binding isotherms were obtained using isothermal titration calorimetry, for the interaction of mouse Keap1-DC (aa321-609, SEQ ID No. 24) with KIR in mouse non-phosphorylated p62 (SEQ ID No. 21), KIR in mouse phosphorylated p62 (SEQ ID No. 21), or an ETGE motif of mouse Nrf2 (SEQ ID No. 26) (FIG. 2).
First, isothermal titration calorimetry was performed using MicroCal iTC200 System (GE Healthcare) at 25° C. 2.5 μl of 0.1 mM solution of non-phosphorylated KIR (^348[sequence]^356, SEQ ID No. 21) was injected from a rotating syringe (1000 rpm) into 200 μl of 0.1 mM solution of Keap1-DC sixteen times at an interval of 3 minutes. 1.3 μl of 0.6 mM phosphorylated KIR (^348VDP(pS)TGELQ^356) solution was injected from a rotating syringe (1000 rpm) into 200 μl of 0.06 mM Keap1-DC solution thirty times at an interval of 2 minutes. […] The binding data were analyzed using Origin 7 software (GE healthcare).

Nrf2 = test: immunoblotting of nuclear and whole cell extracts of hepatocytes expressing p62 mutants; type: cell-based, mouse; conditions: normal hepatocytes
Description: Adenoviruses capable of expressing FLAG-tagged p62 w.t. […] Next, normal hepatocytes were cultured in 2 ml of growth medium (Williams E medium containing 10% fetal bovine serum, 5 U/mL penicillin, and 50 μg/mL streptomycin) for 24 hours. The medium was replaced with fresh medium containing the adenovirus at MOI of 50 and the culture was continued. Twenty-four hours after the replacement of the medium, whole cell extract (Total) and nuclear extract (Nucleus) were prepared. Next, immunoprecipitates were prepared from the whole cell extract with anti-FLAG antibody (Sigma Chemical). Then, the samples were separated by NuPAGE electrophoresis system (Invitrogen) on 12% bis-tris gel and MOPS-SDS buffer, and transferred to PVDF membranes. The signals were detected using anti-p62 antibody (GP62C: Progen Biotechnik), anti-Keap1 antibody (Proteintech Group), anti-phosphorylated p62 antibody, anti-Nqo1 antibody (Abcam), anti-Actin antibody (MAB1501R: Millipore), anti-Nrf2 antibody (H-300: Santa Cruz Biotechnology), and anti-LaminB antibody (M-20: Santa Cruz Biotechnology).

Sequence of mouse Keap1-DC (aa321-609, SEQ ID No. 24) (Q9Z2X8 321-609): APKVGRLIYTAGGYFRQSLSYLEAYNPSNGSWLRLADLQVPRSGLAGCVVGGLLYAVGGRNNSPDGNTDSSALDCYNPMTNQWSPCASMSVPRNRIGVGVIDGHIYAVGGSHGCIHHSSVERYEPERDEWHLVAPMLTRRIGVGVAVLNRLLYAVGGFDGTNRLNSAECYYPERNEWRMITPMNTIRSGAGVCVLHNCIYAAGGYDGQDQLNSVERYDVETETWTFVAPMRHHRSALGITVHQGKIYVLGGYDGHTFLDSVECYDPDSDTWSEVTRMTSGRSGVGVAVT

Substance	in vivo proliferation of the tumor cells (tumor volume and weight) (Huh-1_p62^−/− cells)	Binding constant (Ka) to Keap1-DC [1]	further results
p62 (S349E): pseudo-phosphorylated human p62 mutant, glutamic acid for serine 349, SEQ ID No. 8	significantly enhanced	–	–
non-phosphorylated p62-KIR: non-phosphorylated Keap1-interacting region peptide of mouse p62, 348VDPSTGELQ356, SEQ ID No. 21 (listed as Mus musculus) [reference compound]	–	(5.67±1.19)×10^4 M^−1	–
phosphorylated p62-KIR: Keap1-interacting region peptide of mouse p62 phosphorylated at serine 351, 348VDP(pS)TGELQ356 (VDP[pS]TGELQ; listed as Mus musculus)	–	(5.12±1.80)×10^6 M^−1	binding affinity for Keap1-DC relative to KIR of the non-phosphorylated p62 [1]: about 100 times; binding affinity for Keap1-DC relative to KIR of the non-phosphorylated p62 ([1]; listed as KIR in the phosphorylated p62): approximately 100 times
S351E: pseudo-phosphorylated mouse p62 mutant, glutamic acid for serine 351, SEQ ID No. 2	–	–	Nrf2 accumulation in nuclei (Nrf2; nuclear extract): significantly accumulated; expression of Nqo1 (Nrf2 target) (Nrf2; whole cell extract): induced
T350A: human p62 mutant defective in interacting with Keap1, alanine for threonine 350, SEQ ID No. 10 [reference compound]	not recovered	–	–
S349A: non-phosphorylated human p62 mutant, alanine for serine 349, SEQ ID No. 9	not recovered	–	–
